Results taken from US20240350411A1, “METHODS FOR PREPARING LIPOSOMAL FORMULATIONS” (Celator Pharmaceuticals, Inc., priority 2021, published 2024).

Experiment: Removal of free drug during purification with acidified sugar solution: concentration in the permeate
Description: Without being bound by theory, it is surmised that encapsulation of therapeutic agents into liposomes results in some portion of the therapeutic agent becoming associated with or trapped within the lipid bilayer, particularly when encapsulating therapeutic agents with low water solubility or high hydrophobicity. Purifying the liposomal composition with an acidified aqueous solution may remove therapeutic agent that is associated with or trapped within the lipid bilayer, resulting in a liposome formulation that contains a therapeutic agent that is only encapsulated within the internal medium of the liposomes. […] As the washing volume increases—that is, as the liposomal composition is washed with an increasing amount of acidified aqueous sugar solution—the amount of Compound 9 detected in the permeate peaks, and then decreases. The peak is thought to result from a rapid release of Compound 9 that is associated with or trapped in the lipid bilayer into the acidified aqueous sugar solution. […] In other words, purifying the liposomal composition with an acidified aqueous solution may allow for any therapeutic agent merely associated with or trapped within the lipid bilayer to release into the acidified aqueous solution, thus preventing a rapid release from occurring in the bloodstream of a patient upon administration.
A formulation of liposomes containing Compound 9 was prepared and purified as described in Examples 1A, 1B, and 2. The liposome formulation comprised DSPC/Cholesterol/PEGylated (58/40/2 mol %) and used 250 mM AS as the loading aid.
During the purification of the formulation using tangential flow filtration, the concentration of Compound 9 in the permeate was measured, as shown below in Table 7. FIG. 3 depicts the concentration of Compound 9 in the permeate vs. the washing volume.

For `CCN(CC)C1CCN(CC[C@H](CSc2ccccc2)Nc2ccc(S(=O)(=O)NC(=O)c3ccc(N4CCN(CC5=C(c6ccc(Cl)cc6)CCC(C)(C)C5)CC4)cc3)cc2S(=O)(=O)C(F)(F)F)CC1` [Compound 9], the “Compound 9 detected in the permeate” value (after washing with about 300-400 mL of acidified aqueous sugar solution (FIG. 3)) was “little”, the “Concentration of Compound x in the permeate” value (“Concentration of Compound x” for short) (washing volume 1×) was 7.1 µg/mL and the “Concentration of Compound x” value (washing volume 3×) was 15.9 µg/mL. For the same compound, the “Concentration of Compound x” value (washing volume 6×) was 3.5 µg/mL, the “Concentration of Compound x” value (washing volume 9×) was 1.4 µg/mL and the “Concentration of Compound x” value (washing volume 12×) was 1 µg/mL.
